Measured values from patent publication US20150315218A1, “SALTS OF PRODRUGS OF PIPERAZINE AND SUBSTITUTED PIPERIDINE ANTIVIRAL AGENTS” (Bristol-Myers Squibb Company, priority 2004, published 2015).
Values belong to the compound of their own block, whether it stands above or below them.

Columns and labels:
[1] = IV and PO pharmacokinetic studies of prodrug salts (Iab, Ibb, Icb) in the dog, with historical parent data; assay type: in vivo, beagle dogs; conditions: for Tmax / AUC / concentration at 24 hr / Cmax / half-life / bioavailability / clearance / MRT / Vd / concentration at 24 h: plasma; for concentration at 24 hr: read-out: C-24 hr (μM), PO; for concentration at 24 h: read-out: C-24 hr
Experimental: The IV and PO studies of Iab were conducted in a crossover fashion in three male beagle dogs (11±1.1 kg, Marshall Farms USA Inc., North Rose, N.Y.). There was a two-week washout period between the IV and PO studies.
(§1) In the IV study, Iab was infused via the cephalic vein at 1.2 mg/kg (free acid, or 0.95 mg/kg of IVa equivalent) over 5 min at a constant rate of 0.1 mL/kg/min. The concentration of the dosing solution was 2.4 mg/mL, and the dosing volume was 0.5 mL/kg. Serial blood samples were collected from the femoral artery before dosing and at 5, 10, 15, 30, 45 min, 1, 2, 4, 6, 8 and 24 hr after dosing.
(§2) In the PO study, the dogs were fasted overnight before dosing. Iab was administered by oral gavage at 6.6 mg/kg (free acid, or 5.2 mg/kg of IVa equivalent). The concentration of the dosing solution was 13.2 mg/mL, and the dosing volume was 0.5 mL/kg. Serial blood samples were collected before dosing and at 15, 30, 45 min, 1, 2, 4, 6, 8 and 24 hr after dosing.
The IV and PO studies of Ibb were conducted in male beagle dogs (10±0.78 kg, Marshall Farms USA Inc., North Rose, N.Y.). Three dogs were used in each study. Of the three dogs, two same dogs were used for both IV and PO studies. There was a two-week washout period between the IV and PO studies.
The concentration of the dosing solution was 2.6 mg/mL, and the dosing volume was 0.5 mL/kg. Serial blood samples were collected from the femoral artery before dosing and at 5, 10, 15, 30, 45 min, 1, 2, 4, 6, 8 and 24 hr after dosing.
In the PO study, the dogs were fasted overnight before dosing. […] The concentration of the dosing solution was 7.0 mg/mL, and the dosing volume was 1 mL/kg. Serial blood samples were collected before dosing and at 15, 30, 45 min, 1, 2, 4, 6, 8 and 24 hr after dosing.
The IV and PO studies of Icb were conducted in a crossover fashion in three male beagle dogs (12±2.8 kg, Marshall Farms USA Inc., North Rose, N.Y.). There was a two-week washout period between the IV and PO studies.
as §1, with “Icb” for “Iab”, “1.3” for “1.2”, “1.0” for “0.95”, “IVe” for “IVa”, “2.6” for “2.4”
In the PO study, the dogs were fasted overnight before dosing. […] The concentration of the dosing solution was 12 mg/mL, and the dosing volume was 0.5 mL/kg. Serial blood samples were collected before dosing and at 15, 30, 45 min, 1, 2, 4, 6, 8 and 24 hr after dosing.

[2] = IV and PO pharmacokinetic studies of prodrug salts (Iab, Ibb, Icb) in the monkey, with historical parent data; assay type: in vivo, cynomolgus monkeys
Experimental: The IV and PO studies of Iab were conducted in a crossover fashion in three male cynomolgus monkeys (11±1.2 kg, Charles River Biomedical Research Foundation, Houston, Tex.). There was a two-week washout period between the IV and PO studies.
as §1, with “femoral” for “cephalic”, “1.3” for “1.2”, “1.1” for “0.95”, “2.6” for “2.4”
as §2, with “monkeys” for “dogs”, “7.1” for “6.6”, “5.6” for “5.2”, “14.2” for “13.2”
The IV and PO studies of Ibb were conducted in a crossover fashion in three male cynomolgus monkeys (9.9±2.4 kg, Charles River Biomedical Research Foundation, Houston, Tex.). There was a two-week washout period between the IV and PO studies.
The concentration of the dosing solution was 2.7 mg/mL, and the dosing volume was 0.5 mL/kg. Serial blood samples were collected from the femoral artery before dosing and at 5, 10, 15, 30, 45 min, 1, 2, 4, 6, 8 and 24 hr after dosing.
In the PO study, the monkeys were fasted overnight before dosing. […] The concentration of the dosing solution was 5.8 mg/mL, and the dosing volume was 1 mL/kg. Serial blood samples were collected before dosing and at 15, 30, 45 min, 1, 2, 4, 6, 8 and 24 hr after dosing.
The IV and PO studies of Icb were conducted in a crossover fashion in three male cynomolgus monkeys (10±1.6 kg, Charles River Biomedical Research Foundation, Houston, Tex.). There was a two-week washout period between the IV and PO studies.
The concentration of the dosing solution was 2.8 mg/mL, and the dosing volume was 0.5 mL/kg. Serial blood samples were collected from the femoral artery before dosing and at 5, 10, 15, 30, 45 min, 1, 2, 4, 6, 8 and 24 hr after dosing.
In the PO study, the monkeys were fasted overnight before dosing. […] The concentration of the dosing solution was 9.8 mg/mL, and the dosing volume was 0.5 mL/kg. Serial blood samples were collected before dosing and at 15, 30, 45 min, 1, 2, 4, 6, 8 and 24 hr after dosing.

[3] = beagle, historical parent, PO 5 mg/kg, read-out: Tmax (hr), PO
[4] = male, beagle, oral prodrug, read-out: Bioavailability (%) of parent from prodrug
[5] = male, beagle, parent after oral prodrug (~5 mg/kg parent equivalent), read-out: Tmax (hr), PO
[6] = cynomolgus monkey, plasma, monkey, historical parent, PO 5 mg/kg, read-out: Bioavailability (%)
[7] = cynomolgus monkey, plasma, monkey, historical parent, PO 5 mg/kg, read-out: Tmax (hr), PO
[8] = male, cynomolgus monkey, plasma, monkey, oral prodrug, read-out: Bioavailability (%) of parent from prodrug
[9] = male, cynomolgus monkey, plasma, monkey, parent after oral prodrug (~4-6 mg/kg parent equivalent), read-out: Tmax (hr), PO

SMILES: COc1ncc(OC)c2c(C(=O)C(=O)N3CCN(C(=O)c4ccccc4)CC3)c[nH]c12 [IVa, N-(benzoyl)-N′-[(4,7-dimethoxy-6-azaindol-3-yl)-oxoacetyl]piperazine]
IV AUC Ratio of parent (formed from prodrug vs historical parent study) [1]: 0.80 | Bioavailability (%) ([1]; beagle, in vivo, po, 5 mg/kg): 57% | Tmax [1, 3]: 2.9 h | AUC ([1]; male, beagle, 6.6 mg/kg, after oral prodrug, analyte = label, ND = not detected, read-out: AUCtot (μM · hr), PO): 83 ± 16 µM·h | concentration at 24 hr ([1]; male, beagle, 6.6 mg/kg, after oral prodrug, analyte = label, ND = not detected): 0.26 ± 0.12 µM | Cmax ([1]; male, beagle, 6.6 mg/kg, after oral prodrug, analyte = label, ND = not detected, read-out: Cmax (μM), PO): 14 ± 1.3 µM | half-life ([1]; male, beagle, 6.6 mg/kg, parent after oral prodrug, read-out: t1/2 (hr), PO (converted)): 4.1 ± 0.52 h | AUC ([1]; male, beagle, after IV prodrug (~1 mg/kg parent equivalent), analyte = label, read-out: AUCtot (μM · hr), IV): 13 ± 2.2 µM·h | half-life ([1]; male, beagle, after IV prodrug, analyte = label, read-out: t1/2 (hr), IV (converted)): 5.2 ± 1 h | bioavailability [1, 4]: 94% | Tmax [1, 5]: 0.25 h | PO AUC Ratio of parent ([1]; oral prodrug vs historical parent): 1.7 | AUC ([1]; historical parent, IV 1 mg/kg, read-out: AUCtot (μM · hr), IV): 17 ± 3.5 µM·h | clearance ([1]; historical parent, IV 1 mg/kg, read-out: CLtot (mL/min/kg), IV): 2.4 ± 0.43 mL/min/kg | MRT ([1]; historical parent, IV 1 mg/kg, read-out: MRT (hr), IV): 3.3 ± 0.71 h | Vd ([1]; historical parent, IV 1 mg/kg, read-out: Vdss (L/kg), IV): 0.45 ± 0.083 L/kg | half-life ([1]; historical parent, IV 1 mg/kg, read-out: t1/2 (hr), IV (converted)): 2.6 ± 1.2 h | AUC ([1]; historical parent, PO 5 mg/kg, read-out: AUCtot (μM · hr), PO): 47 ± 7.2 µM·h | concentration at 24 hr ([1]; historical parent, PO 5 mg/kg): 0.15 ± 0.093 µM | Cmax ([1]; historical parent, PO 5 mg/kg, read-out: Cmax (μM), PO): 6.5 ± 1.2 µM | half-life ([1]; historical parent, PO 5 mg/kg, read-out: t1/2 (hr), PO (converted)): 3.8 ± 0.81 h | AUC ([2]; cynomolgus monkey, plasma, monkey, historical parent, IV 1 mg/kg, read-out: AUCtot (μM · hr), IV): 9.2 ± 0.53 µM·h | clearance ([2]; cynomolgus monkey, plasma, monkey, historical parent, IV 1 mg/kg, read-out: CLtot (mL/min/kg), IV): 4.3 ± 0.26 mL/min/kg | MRT ([2]; cynomolgus monkey, plasma, monkey, historical parent, IV 1 mg/kg, read-out: MRT (hr), IV): 2.4 ± 0.15 h | Vd ([2]; cynomolgus monkey, plasma, monkey, historical parent, IV 1 mg/kg, read-out: Vdss (L/kg), IV): 0.63 ± 0.39 L/kg | half-life ([2]; cynomolgus monkey, plasma, monkey, historical parent, IV 1 mg/kg, read-out: t1/2 (hr), IV (converted)): 4.7 ± 0.31 h | AUC ([2]; cynomolgus monkey, plasma, monkey, historical parent, PO 5 mg/kg, read-out: AUCtot (μM · hr), PO): 27 ± 2.9 µM·h | bioavailability [2, 6]: 60% | concentration at 24 hr ([2]; cynomolgus monkey, plasma, monkey, historical parent, PO 5 mg/kg, read-out: C-24 hr (μM), PO): 0.074 ± 0.032 µM | Cmax ([2]; cynomolgus monkey, plasma, monkey, historical parent, PO 5 mg/kg, read-out: Cmax (μM), PO): 5.8 ± 1.2 µM | Tmax [2, 7]: 2.7 h | half-life ([2]; cynomolgus monkey, plasma, monkey, historical parent, PO 5 mg/kg, read-out: t1/2 (hr), PO (converted)): 4.2 ± 0.64 h | AUC ([2]; male, cynomolgus monkey, plasma, monkey, after IV prodrug (~1.1 mg/kg parent equivalent), analyte = label, read-out: AUCtot (μM · hr), IV): 7.1 ± 1 µM·h | half-life ([2]; male, cynomolgus monkey, plasma, monkey, after IV prodrug, analyte = label, read-out: t1/2 (hr), IV (converted)): 4.8 ± 1.9 h | bioavailability [2, 8]: 66% | Tmax [2, 9]: 0.83 h | half-life ([2]; male, cynomolgus monkey, plasma, monkey, parent after oral prodrug, read-out: t1/2 (hr), PO (converted)): 4.8 ± 1.3 h | IV AUC Ratio of parent (formed from prodrug vs historical parent study) ([2]; monkey): 0.70 | PO AUC Ratio of parent ([2]; monkey, oral prodrug vs historical parent): 1.1

bioavailability ([1]; beagle, historical parent, PO 5 mg/kg, read-out: Bioavailability (%)): 179% | Tmax [1, 3]: 0.5 h | half-life ([1]; male, beagle, iv, […], read-out: T1/2 (converted)): 2 ± 0.21 h | bioavailability [1, 4]: 310% | bioavailability ([1]; male, beagle, oral, 7 mg/kg, read-out: Bioavailability): 310% | concentration at 24 h ([1]; male, beagle, oral, 7 mg/kg): 37 ± 26 nM | Tmax [1, 5]: 0.4 h | AUC ([1]; male, beagle, po, 7 mg/kg, read-out: AUCtot): 66 ± 17 µM·h | Cmax ([1]; male, beagle, po, 7 mg/kg, read-out: Cmax): 20 ± 2.4 µM | half-life ([1]; male, beagle, po, 7 mg/kg, read-out: T1/2 (converted)): 2.6 ± 0.21 h | Tmax ([1]; male, beagle, po, 7 mg/kg, read-out: Tmax): 0.4 ± 0.13 h | AUC ([1]; iv, 1 mg/kg, read-out: AUCtot): 3.8 µM·h | clearance ([1]; iv, 1 mg/kg, read-out: CLtot): 9.8 mL/min/kg | MRT ([1]; iv, 1 mg/kg, read-out: MRT): 1.8 h | half-life ([1]; iv, 1 mg/kg, read-out: T1/2 (converted)): 1.6 h | Vd ([1]; iv, 1 mg/kg, read-out: Vdss): 1.1 L/kg | concentration at 24 h ([1]; oral, 5 mg/kg): 34 nM | AUC ([1]; po, 5 mg/kg, read-out: AUCtot): 30 ± 11 µM·h | bioavailability ([1]; po, 5 mg/kg, read-out: Bioavailability): 179 ± 56% | Cmax ([1]; po, 5 mg/kg, read-out: Cmax): 7.7 ± 0.71 µM | half-life ([1]; po, 5 mg/kg, read-out: T1/2 (converted)): 2.7 ± 0.4 h | Tmax ([1]; po, 5 mg/kg, read-out: Tmax): 0.5 ± 0.25 h | AUC ([2]; cynomolgus monkey, plasma, iv, 1 mg/kg, read-out: AUCtot): 10 ± 1.2 µM·h | clearance ([2]; cynomolgus monkey, plasma, iv, 1 mg/kg, read-out: CLtot): 3.7 ± 0.43 mL/min/kg | MRT ([2]; cynomolgus monkey, plasma, iv, 1 mg/kg, read-out: MRT): 5.6 ± 6.3 h | half-life ([2]; cynomolgus monkey, plasma, iv, 1 mg/kg, read-out: T1/2 (converted)): 19 ± 20 h | Vd ([2]; cynomolgus monkey, plasma, iv, 1 mg/kg, read-out: Vdss): 1.2 ± 1.4 L/kg | concentration at 24 h ([2]; cynomolgus monkey, plasma, oral, 5 mg/kg, read-out: C-24 hr): 240 nM | AUC ([2]; cynomolgus monkey, plasma, po, 5 mg/kg, read-out: AUCtot): 24 µM·h | Cmax ([2]; cynomolgus monkey, plasma, po, 5 mg/kg, read-out: Cmax): 4.2 µM | half-life ([2]; cynomolgus monkey, plasma, po, 5 mg/kg, read-out: T1/2 (converted)): 11 h | bioavailability [2, 6]: 49% | Tmax [2, 7]: 2.5 h | half-life ([2]; male, cynomolgus monkey, plasma, iv, […], read-out: T1/2 (converted)): 6.5 ± 2.4 h | bioavailability ([2]; male, cynomolgus monkey, plasma, oral, […], read-out: Bioavailability): 187% | half-life ([2]; male, cynomolgus monkey, plasma, po, […], read-out: T1/2 (converted)): 4.1 ± 1.1 h | Tmax ([2]; male, cynomolgus monkey, plasma, po, […], read-out: Tmax): 1.5 ± 0.87 h | bioavailability [2, 8]: 187% | Tmax [2, 9]: 1.5 h
SMILES: O=C(C(=O)N1CCN(C(=O)c2ccccc2)CC1)c1c[nH]c2c(-n3ccnn3)ncc(F)c12 [IVb]
